In publication PMC9599548, “EP-Pred: A Machine Learning Tool for Bioprospecting Promiscuous Ester Hydrolases” (Biomolecules, 2022):

Experiments:
Test in all cases: 4-nitrophenol release at […] nm, initial rates
Assay type in all cases: biochemical
Conditions in all cases: 5 mM EPPS pH 8.0, 30 °C; ester 0–0.04 mM
[1] = test system: WP_014900537.1
[2] = test system: WP_089515094.1
[3] = test system: WP_026140314.1

Structure (SMILES): CCC(=O)Oc1ccc([N+](=O)[O-])cc1 [p-NP propionate]
- Km [1]: 16.9 ± 1.6 µM
- Km [2]: 23.5 ± 3.5 µM
- Km [3]: 14.5 ± 1.1 µM
